According to patent publication US20190169134A1, “NOVEL CLASS OF QUINOLONE HETEROCYCLIC AROMATIC MOLECULES FOR CANCER TREATMENT” (RenoTarget Therapeutics, Inc., priority 2016, published 2019):

Legend:
Experiment in all cases: KinaseSeeker competition binding assay
PDPK1 = target: T1, PDPK1 (Homo sapiens, UniProt O15530)
T1 construct: made in house; host or cells: cell-free, rabbit reticulocyte lysate
Description: (§1) Compound Reno647 was profiled against the following panel of kinases at 2 μM using the KinaseSeeker™ assay: ABL1, AKT1, AKT2, AKT3, ALK, AURKA, AXL, BRAF, BTK, CDK2, CDK5, CDK7, CDK8, CSF1R, DDR1, EGFR del L747-P753 InsS, EGFR (L861Q), EGFR (G719S), EGFR, EGFR (L858R), EPHA2, EPHB2, FGFR3, FLT1/VEGFR1, FLT2/FGFR1, FLT3, FLT4/VEGFR3, GSK-3a, HER2, IGF1R, INSR, KIT, LIMK1, MET, MLK2/MAP3K10, RPS6KA5/MSK1, MUSK, p38a/MAPK12, PDGFRA, PDGFRB, PDK1, RET, RIPK2, RPS6KA1/RSK1, SRC, TEC, TESK1, TRKB, VEGFR2, and YES 1.
(§2) KinaseSeeker is a homogeneous competition binding assay where the displacement of an active site dependent probe by an inhibitor is measured by a change in luminescence signal (see FIG. 7). Luminescence readout translates into a highly sensitive and robust assay with low background and minimal interference from test compounds.
(§3) (Jester, Cox et al. 2010; Jester, Gaj et al. 2012): 10 mM stock of compound Reno647 was diluted in DMSO to a concentration of 50 μM. Prior to initiating a profiling campaign, the compound was evaluated for false positive against split-luciferase. The compound was then screened in duplicate against each of the kinases. For kinase assays, each Cfluc-Kinase was translated along with Fos-Nfluc using a cell-free system (rabbit reticulocyte lysate) at 30° C. for 90 min. A 24 μL aliquot of this lysate containing either 1 μL of DMSO (for no-inhibitor control) or compound solution in DMSO (2 LM final concentration) was incubated for 30 minutes at room temperature followed by 1 hour in the presence of a kinase specific probe. A 80 μL of luciferin assay reagent was added to each solution and luminescence was immediately measured on a luminometer.
(§4) The % Inhibition and % Activity Remaining were calculated using the following equations:
(§5) % inhibition=(ALUcontrol−ALUsample)×100
(§6) % activity=100−% inhibition.

AKT1 = target: T2, AKT1 (Homo sapiens, UniProt P31749)
T2 construct: made in house; host or cells: cell-free system (rabbit reticulocyte lysate)
Description: as §1, §2, §3, §4, §5, §6

INSR = target: T3, INSR (Homo sapiens, UniProt P06213)
T3 construct: made in house; host or cells: cell-free, rabbit reticulocyte lysate
T3 sequence (P06213 28-1382): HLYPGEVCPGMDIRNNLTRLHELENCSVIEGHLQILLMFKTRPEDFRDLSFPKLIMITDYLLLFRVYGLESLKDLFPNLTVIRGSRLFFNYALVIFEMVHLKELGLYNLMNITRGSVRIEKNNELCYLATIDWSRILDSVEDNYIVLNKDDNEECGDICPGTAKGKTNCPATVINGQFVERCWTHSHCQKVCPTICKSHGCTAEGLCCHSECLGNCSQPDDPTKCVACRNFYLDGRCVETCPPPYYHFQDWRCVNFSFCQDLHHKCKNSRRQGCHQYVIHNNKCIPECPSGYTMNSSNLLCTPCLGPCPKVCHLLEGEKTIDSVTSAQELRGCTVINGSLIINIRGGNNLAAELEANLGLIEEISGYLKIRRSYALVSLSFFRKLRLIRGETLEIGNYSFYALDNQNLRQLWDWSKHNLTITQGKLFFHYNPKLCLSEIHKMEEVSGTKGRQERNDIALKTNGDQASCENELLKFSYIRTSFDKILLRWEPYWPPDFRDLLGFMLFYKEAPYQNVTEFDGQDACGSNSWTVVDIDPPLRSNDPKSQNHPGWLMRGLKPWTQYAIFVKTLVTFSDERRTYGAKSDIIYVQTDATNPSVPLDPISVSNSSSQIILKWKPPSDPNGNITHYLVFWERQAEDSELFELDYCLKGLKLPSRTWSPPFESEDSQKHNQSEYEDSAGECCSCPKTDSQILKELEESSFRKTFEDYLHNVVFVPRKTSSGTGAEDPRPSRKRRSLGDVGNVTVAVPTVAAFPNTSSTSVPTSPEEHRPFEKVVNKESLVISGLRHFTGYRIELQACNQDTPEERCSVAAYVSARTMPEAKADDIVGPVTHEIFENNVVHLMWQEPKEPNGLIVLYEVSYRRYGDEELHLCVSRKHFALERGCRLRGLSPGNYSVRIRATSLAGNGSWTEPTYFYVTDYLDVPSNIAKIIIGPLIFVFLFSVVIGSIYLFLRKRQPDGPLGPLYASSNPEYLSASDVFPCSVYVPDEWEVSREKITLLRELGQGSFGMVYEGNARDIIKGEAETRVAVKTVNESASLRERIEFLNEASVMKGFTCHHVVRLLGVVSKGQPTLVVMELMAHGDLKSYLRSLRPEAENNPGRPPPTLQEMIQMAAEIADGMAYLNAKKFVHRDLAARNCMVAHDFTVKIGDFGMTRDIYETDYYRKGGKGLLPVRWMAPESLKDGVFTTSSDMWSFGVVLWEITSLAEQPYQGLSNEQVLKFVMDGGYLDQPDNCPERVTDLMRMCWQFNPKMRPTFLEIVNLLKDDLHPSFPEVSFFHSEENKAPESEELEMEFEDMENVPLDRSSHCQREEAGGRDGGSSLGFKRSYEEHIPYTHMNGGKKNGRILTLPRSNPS
Description: as §1, §2, §3, §4, §5, §6

RIPK2 = target: T4, RIPK2 (Homo sapiens, UniProt O43353)
T4 construct: made in house; host or cells: cell-free, rabbit reticulocyte lysate
Description: as §1, §2, §3, §4, §5, §6

TRKB = target: T5, TRKB (Homo sapiens, UniProt Q16620)
T5 construct: made in house; host or cells: cell-free, rabbit reticulocyte lysate
Description: as §1, §2, §3, §4, §5, §6

MSK1 = target: T6, MSK1 (Homo sapiens, UniProt O75582)
T6 construct: made in house; host or cells: cell-free, rabbit reticulocyte lysate
Description: as §1, §2, §3, §4, §5, §6

VEGFR2 = target: T7, VEGFR2 (Homo sapiens, UniProt P35968)
T7 construct: made in house; host or cells: cell-free, rabbit reticulocyte lysate
Description: as §1, §2, §3, §4, §5, §6

FGFR3 = target: T8, FGFR3 (Homo sapiens, UniProt P22607)
T8 construct: made in house; host or cells: cell-free system (rabbit reticulocyte lysate)
Description: as §1, §2, §3, §4, §5, §6

p38a = details: 2 μM
Description: as §1, §2, §3, §4, §5, §6

BRAF = target: T9, BRAF (Homo sapiens, UniProt P15056)
T9 construct: made in house; host or cells: cell-free system (rabbit reticulocyte lysate)
Description: as §1, §2, §3, §4, §5, §6

CDK2 - Cyclin E1 = target: T10, CDK2 - Cyclin E1 (Homo sapiens, UniProt P24941)
T10 construct: made in house; host or cells: cell-free system (rabbit reticulocyte lysate)
Description: as §1, §2, §3, §4, §5, §6

FLT1 = target: T11, FLT1 (Homo sapiens, UniProt P17948)
T11 construct: made in house; host or cells: cell-free system (rabbit reticulocyte lysate)
Description: as §1, §2, §3, §4, §5, §6

PDGFRB = target: T12, PDGFRB (Homo sapiens, UniProt P09619)
T12 construct: made in house; host or cells: cell-free, rabbit reticulocyte lysate
Description: as §1, §2, §3, §4, §5, §6

EPHB2 = target: T13, EPHB2 (Homo sapiens, UniProt P29323)
T13 construct: made in house; host or cells: cell-free system (rabbit reticulocyte lysate)
Description: as §1, §2, §3, §4, §5, §6

FLT3 = target: T14, FLT3 (Homo sapiens, UniProt P36888)
T14 construct: made in house; host or cells: cell-free, rabbit reticulocyte lysate
Description: as §1, §2, §3, §4, §5, §6

PDGFRA = target: T15, PDGFRA (Homo sapiens, UniProt P16234)
T15 construct: made in house; host or cells: cell-free, rabbit reticulocyte lysate
Description: as §1, §2, §3, §4, §5, §6

HER2 = target: T16, HER2 (Homo sapiens, UniProt P04626)
T16 construct: made in house; host or cells: cell-free, rabbit reticulocyte lysate
T16 sequence (P04626 23-1255): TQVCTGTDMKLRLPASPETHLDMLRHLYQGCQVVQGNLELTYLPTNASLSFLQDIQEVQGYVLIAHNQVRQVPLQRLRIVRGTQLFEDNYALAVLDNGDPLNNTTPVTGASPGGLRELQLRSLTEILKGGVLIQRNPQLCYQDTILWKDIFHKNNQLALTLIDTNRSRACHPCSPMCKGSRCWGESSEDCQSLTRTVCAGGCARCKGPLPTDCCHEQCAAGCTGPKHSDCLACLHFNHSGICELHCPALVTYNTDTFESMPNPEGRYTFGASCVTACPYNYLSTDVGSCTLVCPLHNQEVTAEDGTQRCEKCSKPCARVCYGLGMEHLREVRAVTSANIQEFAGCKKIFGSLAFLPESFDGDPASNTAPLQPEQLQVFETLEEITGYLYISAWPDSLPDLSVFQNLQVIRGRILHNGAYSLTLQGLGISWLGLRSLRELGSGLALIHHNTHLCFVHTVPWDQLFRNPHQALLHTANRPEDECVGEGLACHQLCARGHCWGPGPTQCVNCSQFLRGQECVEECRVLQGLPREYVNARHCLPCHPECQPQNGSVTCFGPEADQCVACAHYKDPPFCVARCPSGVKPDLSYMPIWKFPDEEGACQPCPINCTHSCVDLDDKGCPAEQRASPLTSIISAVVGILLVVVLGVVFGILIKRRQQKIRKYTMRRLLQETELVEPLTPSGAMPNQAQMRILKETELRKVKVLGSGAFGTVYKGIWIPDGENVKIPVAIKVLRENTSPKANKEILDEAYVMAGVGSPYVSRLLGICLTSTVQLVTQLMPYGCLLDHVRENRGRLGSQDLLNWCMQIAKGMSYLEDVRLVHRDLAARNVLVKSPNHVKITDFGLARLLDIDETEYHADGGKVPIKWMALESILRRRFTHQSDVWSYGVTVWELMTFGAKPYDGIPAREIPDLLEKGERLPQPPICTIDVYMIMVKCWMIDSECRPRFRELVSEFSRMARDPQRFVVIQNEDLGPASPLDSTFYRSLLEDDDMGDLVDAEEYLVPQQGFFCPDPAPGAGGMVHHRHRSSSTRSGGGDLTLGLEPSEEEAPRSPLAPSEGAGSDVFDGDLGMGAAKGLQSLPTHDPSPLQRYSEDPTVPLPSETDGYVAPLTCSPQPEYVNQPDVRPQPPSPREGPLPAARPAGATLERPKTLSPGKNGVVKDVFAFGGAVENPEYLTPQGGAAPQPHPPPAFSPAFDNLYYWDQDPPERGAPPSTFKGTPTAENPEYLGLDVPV
Description: as §1, §2, §3, §4, §5, §6

SRC = target: T17, SRC (Homo sapiens, UniProt P12931)
T17 construct: made in house; host or cells: cell-free, rabbit reticulocyte lysate
T17 sequence (P12931 whole entry): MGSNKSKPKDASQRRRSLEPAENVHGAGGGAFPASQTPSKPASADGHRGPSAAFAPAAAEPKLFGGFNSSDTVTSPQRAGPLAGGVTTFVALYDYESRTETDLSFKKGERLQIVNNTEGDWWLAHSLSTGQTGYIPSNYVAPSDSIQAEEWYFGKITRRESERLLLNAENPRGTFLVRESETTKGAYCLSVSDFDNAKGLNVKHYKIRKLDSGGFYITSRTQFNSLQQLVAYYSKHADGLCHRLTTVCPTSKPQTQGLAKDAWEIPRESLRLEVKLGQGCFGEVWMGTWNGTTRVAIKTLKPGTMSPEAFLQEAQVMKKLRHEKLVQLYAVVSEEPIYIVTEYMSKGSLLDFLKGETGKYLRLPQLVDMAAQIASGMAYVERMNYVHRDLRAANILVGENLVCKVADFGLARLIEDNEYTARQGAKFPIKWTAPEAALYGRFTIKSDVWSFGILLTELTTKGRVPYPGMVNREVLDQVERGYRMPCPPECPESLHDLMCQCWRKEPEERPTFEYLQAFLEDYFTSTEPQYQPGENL
Description: as §1, §2, §3, §4, §5, §6

FLT4 = target: T18, FLT4 (Homo sapiens, UniProt P35916)
T18 construct: made in house; host or cells: cell-free, rabbit reticulocyte lysate
Description: as §1, §2, §3, §4, §5, §6

AXL = target: T19, AXL (Homo sapiens, UniProt P30530)
T19 construct: made in house; host or cells: cell-free system (rabbit reticulocyte lysate)
Description: as §1, §2, §3, §4, §5, §6

LIMK1 = target: T20, LIMK1 (Homo sapiens, UniProt P53667)
T20 construct: made in house; host or cells: cell-free, rabbit reticulocyte lysate
Description: as §1, §2, §3, §4, §5, §6

CSF1R = target: T21, CSF1R (Homo sapiens, UniProt P07333)
T21 construct: made in house; host or cells: cell-free system (rabbit reticulocyte lysate)
Description: as §1, §2, §3, §4, §5, §6

CDK8 = target: T22, CDK8 (Homo sapiens, UniProt P49336)
T22 construct: made in house; host or cells: cell-free system (rabbit reticulocyte lysate)
T22 sequence (P49336 whole entry): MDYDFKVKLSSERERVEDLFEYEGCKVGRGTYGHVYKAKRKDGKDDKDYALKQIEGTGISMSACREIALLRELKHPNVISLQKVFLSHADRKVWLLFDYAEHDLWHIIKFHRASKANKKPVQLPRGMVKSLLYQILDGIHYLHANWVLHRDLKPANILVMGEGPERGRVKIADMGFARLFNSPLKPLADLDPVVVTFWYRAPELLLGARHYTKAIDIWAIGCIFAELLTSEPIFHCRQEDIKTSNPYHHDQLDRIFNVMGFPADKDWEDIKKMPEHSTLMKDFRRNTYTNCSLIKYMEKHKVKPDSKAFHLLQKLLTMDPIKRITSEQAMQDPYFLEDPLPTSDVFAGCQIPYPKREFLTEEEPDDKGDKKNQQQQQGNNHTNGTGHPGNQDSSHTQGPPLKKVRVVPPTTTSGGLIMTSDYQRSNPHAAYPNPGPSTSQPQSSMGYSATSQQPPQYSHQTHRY
Description: as §1, §2, §3, §4, §5, §6

KIT-KD = target: T23, KIT-KD (Homo sapiens, UniProt P10721)
T23 construct: KIT-KD; made in house; host or cells: cell-free, rabbit reticulocyte lysate
Description: as §1, §2, §3, §4, §5, §6

CDK5 = target: T24, CDK5 (Homo sapiens, UniProt Q00535)
T24 construct: made in house; host or cells: cell-free system (rabbit reticulocyte lysate)
Description: as §1, §2, §3, §4, §5, §6

EPHA2 = target: T25, EPHA2 (Homo sapiens, UniProt P29317)
T25 construct: made in house; host or cells: cell-free system (rabbit reticulocyte lysate)
T25 sequence (P29317 24-976): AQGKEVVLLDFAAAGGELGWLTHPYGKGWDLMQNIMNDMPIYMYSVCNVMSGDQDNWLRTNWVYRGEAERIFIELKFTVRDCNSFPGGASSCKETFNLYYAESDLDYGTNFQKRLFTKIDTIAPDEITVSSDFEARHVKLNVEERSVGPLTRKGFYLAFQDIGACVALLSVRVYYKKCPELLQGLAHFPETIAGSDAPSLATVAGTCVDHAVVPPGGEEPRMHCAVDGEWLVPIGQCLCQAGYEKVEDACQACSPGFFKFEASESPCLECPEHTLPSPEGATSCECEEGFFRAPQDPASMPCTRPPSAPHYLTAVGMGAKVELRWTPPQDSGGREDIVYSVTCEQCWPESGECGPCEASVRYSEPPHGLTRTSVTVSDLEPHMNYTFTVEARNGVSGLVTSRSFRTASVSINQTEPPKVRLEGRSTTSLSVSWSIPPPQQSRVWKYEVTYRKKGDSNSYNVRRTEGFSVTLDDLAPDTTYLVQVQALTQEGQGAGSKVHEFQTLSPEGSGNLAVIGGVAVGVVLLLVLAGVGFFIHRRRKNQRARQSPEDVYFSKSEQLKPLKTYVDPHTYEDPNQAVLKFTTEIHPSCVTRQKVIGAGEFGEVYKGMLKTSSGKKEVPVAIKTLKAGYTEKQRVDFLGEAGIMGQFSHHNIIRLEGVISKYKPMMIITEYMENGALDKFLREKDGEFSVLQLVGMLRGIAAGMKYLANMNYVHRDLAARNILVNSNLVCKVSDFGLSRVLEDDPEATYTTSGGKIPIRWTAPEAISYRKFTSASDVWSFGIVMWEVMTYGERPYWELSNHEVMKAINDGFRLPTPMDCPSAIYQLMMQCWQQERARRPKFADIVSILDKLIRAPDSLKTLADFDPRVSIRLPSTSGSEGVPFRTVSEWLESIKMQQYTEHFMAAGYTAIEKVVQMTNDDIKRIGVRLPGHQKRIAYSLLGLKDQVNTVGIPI
Description: as §1, §2, §3, §4, §5, §6

YES1 = target: T26, YES1 (Homo sapiens, UniProt P07947)
T26 construct: made in house; host or cells: cell-free, rabbit reticulocyte lysate
T26 sequence (P07947 whole entry): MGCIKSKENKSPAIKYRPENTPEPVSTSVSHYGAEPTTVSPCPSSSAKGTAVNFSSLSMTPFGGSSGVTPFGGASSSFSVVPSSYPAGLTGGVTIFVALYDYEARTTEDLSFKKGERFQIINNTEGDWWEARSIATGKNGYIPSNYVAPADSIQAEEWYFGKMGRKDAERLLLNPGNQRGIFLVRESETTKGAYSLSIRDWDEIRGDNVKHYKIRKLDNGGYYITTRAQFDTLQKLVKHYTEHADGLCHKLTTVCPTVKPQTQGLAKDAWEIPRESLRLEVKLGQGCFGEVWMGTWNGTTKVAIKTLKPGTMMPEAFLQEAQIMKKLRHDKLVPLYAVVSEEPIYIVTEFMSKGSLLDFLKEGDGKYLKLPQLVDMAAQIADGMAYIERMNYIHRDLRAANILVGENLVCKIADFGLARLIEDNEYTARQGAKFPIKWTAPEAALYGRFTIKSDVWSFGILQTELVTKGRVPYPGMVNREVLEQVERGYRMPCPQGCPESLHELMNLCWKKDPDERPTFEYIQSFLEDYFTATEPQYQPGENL
Description: as §1, §2, §3, §4, §5, §6

CDK7 = target: T27, CDK7 (Homo sapiens, UniProt P50613)
T27 construct: made in house; host or cells: cell-free system (rabbit reticulocyte lysate)
Description: as §1, §2, §3, §4, §5, §6

MET = target: T28, MET (Homo sapiens, UniProt P08581)
T28 construct: made in house; host or cells: cell-free, rabbit reticulocyte lysate
Description: as §1, §2, §3, §4, §5, §6

**Q.** What does the source list for `C#Cc1cccc(Nc2ncnc3cc(OCCOC)c(NC(=O)c4ccc(F)c([N+](=O)[O-])c4)cc23)c1` [Reno647, 4-Fluoro-N-[4-(3-ethynyl-phenylamino)-7-(2-methoxy-ethoxy)-quinazolin-6-yl]-3-nitro-benzamide]?
**A.** remaining binding at 2 µM (PDPK1): 92.8%; remaining binding at 2 µM (AKT1): 96.8%; remaining binding at 2 µM (INSR): 84.6%; remaining binding at 2 µM (RIPK2): ~41%; remaining binding at 2 µM (TRKB): 88.4%; remaining binding at 2 µM (MSK1): 100%; remaining binding at 2 µM (VEGFR2): 92.8%; remaining binding at 2 µM (FGFR3): 98.9%; % Activity Remaining (p38a): 100.0%; remaining binding at 2 µM (BRAF): 100%; remaining binding at 2 µM (CDK2 - Cyclin E1): 100%; remaining binding at 2 µM (FLT1): 80.5%; remaining binding at 2 µM (PDGFRB): 76.6%; remaining binding at 2 µM (EPHB2): 100%; remaining binding at 2 µM (FLT3): 100%; remaining binding at 2 µM (PDGFRA): 96.4%; remaining binding at 2 µM (HER2): 100%; remaining binding at 2 µM (SRC): 84.9%; remaining binding at 2 µM (FLT4): 79.8%; remaining binding at 2 µM (AXL): 73.2%; remaining binding at 2 µM (LIMK1): 100%; remaining binding at 2 µM (CSF1R): 97.6%; remaining binding at 2 µM (CDK8): 92.3%; remaining binding at 2 µM (KIT-KD): 90%; remaining binding at 2 µM (CDK5): 99.5%; remaining binding at 2 µM (EPHA2): 100%; remaining binding at 2 µM (YES1): 87.1%; remaining binding at 2 µM (CDK7): 95.5%; remaining binding at 2 µM (MET): 100%
